{"source": "patent US11241394B2", "about": "“Treating vasculature related diseases or disorders using nanoparticles” (The Regents of the University of California, priority 2015, dated 2022)", "test_system": "balloon-denuded rats (coronary restenosis model)", "assay": "Treatment of experimental rat model of coronary restenosis", "type": "in vivo, Sprague-Dawley rats", "settings": "0.3 mg kg^-1 docetaxel i.v. on day 0 and 5, arteries collected day 14, n=6", "experimental": "Sprague-Dawley rats following angioplasty-induced arterial denudation were injected intravenously with 1 mL of 5 mg mL^−1 docetaxel-loaded PNPs in 10% sucrose at a docetaxel dose of 0.3 mg kg^−1 on day 0 and day 5. As controls, animals receiving PBS, free docetaxel, and empty PNPs were prepared. On day 14, animals were euthanized with an overdose of ketamine-xylazine cocktail and perfused with PBS and 4% paraformaldehyde (PFA) at a pressure of 120-140 mm Hg. Segments of left and right carotid arteries were carefully dissected out, and the PFA-fixed carotid arteries were embedded with Tissue-Tek OCT compound (VWR International) in a tissue base mold and slowly submerged into pre-chilled 2-methyl butane until frozen completely. The frozen tissue block was then immediately stored at −80° C. until sectioning. Serial sectioning (15 μm per section) was performed with a Cyrotome cryostat machine (Leica), and the tissue sections were placed on polylysine-treated glass slides. Tissue sections on slides were dried at room temperature for 30 min before staining. For immunohistochemistry, frozen sections on slides were first washed with PBS to remove residual OCT medium and then subjected to standard hematoxylin and eosin (H&E) staining. Areas of intima and media were analyzed using Image J. Luminal obliteration is defined as the intima area/the area within the internal elastic lamina. […]", "data": [{"smiles": "CC(=O)O[C@@]12CO[C@@H]1C[C@H](O)[C@@]1(C)C(=O)[C@H](O)C3=C(C)[C@@H](OC(=O)[C@H](O)[C@@H](NC(=O)OC(C)(C)C)c4ccccc4)C[C@@](O)([C@@H](OC(=O)c4ccccc4)[C@H]21)C3(C)C", "note": "[free docetaxel, docetaxel]", "values": [{"measurement": "intima-to-media ratio (I/M)", "value": "0.76±0.18"}, {"measurement": "luminal obliteration", "value": 33.6, "unit": "%"}]}]}
